# Columns and labels:
# Klebsiella pneumoniae [1] = assay: Antibacterial activity against Klebsiella pneumoniae HK11750/08 after 24 hrs by broth microdilution method; format: functional; settings: HK11750/08, 24 h
# Klebsiella pneumoniae [2] = assay: Antibacterial activity against extended spectrum beta-lactamase producing Klebsiella pneumoniae HK14368/08 after 48 hrs by broth microdilution method; format: functional; settings: HK14368/08, 48 h
# Aspergillus fumigatus [3] = assay: Antifungal activity against Aspergillus fumigatus 231 after 24 hrs by broth microdilution method; format: functional; settings: Aspergillus fumigatus, 231, 24 h
# Klebsiella pneumoniae [4] = assay: Antibacterial activity against Klebsiella pneumoniae HK11750/08 after 48 hrs by broth microdilution method; format: functional; settings: HK11750/08, 48 h
# Mycobacterium avium [5] = assay: Antimycobacterial activity against Mycobacterium avium CNCTC My 330/80 after 14 days by micromethod; format: functional; settings: CNCTC My 330/80, 336 h
# Mycobacterium kansasii [6] = assay: Antimycobacterial activity against Mycobacterium kansasii CNCTC My 235/80 after 21 days by micromethod; format: functional; settings: CNCTC My 235/80, 504 h
# Candida tropicalis [7] = assay: Antifungal activity against Candida tropicalis 156 after 48 hrs by broth microdilution method; format: functional; settings: Candida tropicalis, 156, 48 h
# Mycobacterium kansasii [8] = assay: Antimycobacterial activity against Mycobacterium kansasii isolate 6509/96 after 7 days by micromethod; format: functional; settings: isolate 6509/96, 168 h
# Escherichia coli [9] = assay: Antibacterial activity against Escherichia coli ATCC 8739 after 24 hrs by broth microdilution method; format: functional; settings: ATCC 8739, 24 h
# [10] = test system: Staphylococcus epidermidis; assay: Antibacterial activity against Staphylococcus epidermidis HK6966/08 after 48 hrs by broth microdilution method; format: functional; settings: HK6966/08, 48 h
# [11] = test system: Staphylococcus epidermidis; assay: Antibacterial activity against Staphylococcus epidermidis HK6966/08 after 24 hrs by broth microdilution method; format: functional; settings: HK6966/08, 24 h
# Staphylococcus aureus [12] = assay: Antibacterial activity against Staphylococcus aureus ATCC 6538 after 48 hrs by broth microdilution method; format: functional; settings: ATCC 6538, 48 h
# Pseudomonas aeruginosa [13] = assay: Antibacterial activity against Pseudomonas aeruginosa ATCC 9027 after 48 hrs by broth microdilution method; format: functional; settings: ATCC 9027, 48 h
# Mycobacterium avium [14] = assay: Antimycobacterial activity against Mycobacterium avium CNCTC My 330/80 after 21 days by micromethod; format: functional; settings: CNCTC My 330/80, 504 h
# Trichosporon asahii [15] = assay: Antifungal activity against Trichosporon asahii 1188 after 24 hrs by broth microdilution method; format: functional; settings: Trichosporon asahii, 1188, 24 h
# [16] = test system: Trichophyton mentagrophytes; assay: Antifungal activity against Trichophyton mentagrophytes 445 after 72 hrs by broth microdilution method; format: functional; settings: Trichophyton mentagrophytes, 445, 72 h
# Mycobacterium kansasii [17] = assay: Antimycobacterial activity against Mycobacterium kansasii CNCTC My 235/80 after 14 days by micromethod; format: functional; settings: CNCTC My 235/80, 336 h
# Nakaseomyces glabratus [18] = assay: Antifungal activity against Candida glabrata 20/I after 48 hrs by broth microdilution method; format: functional
# Staphylococcus aureus [19] = assay: Antibacterial activity against Staphylococcus aureus ATCC 6538 after 24 hrs by broth microdilution method; format: functional; settings: ATCC 6538, 24 h
# Mycobacterium kansasii [20] = assay: Antimycobacterial activity against Mycobacterium kansasii isolate 6509/96 after 14 days by micromethod; format: functional; settings: isolate 6509/96, 336 h
# Klebsiella pneumoniae [21] = assay: Antibacterial activity against extended spectrum beta-lactamase producing Klebsiella pneumoniae HK14368/08 after 24 hrs by broth microdilution method; format: functional; settings: HK14368/08, 24 h
# [22] = test system: Mycobacterium tuberculosis; assay: Antimycobacterial activity against Mycobacterium tuberculosis H37Rv CNCTC My 331/88 after 21 days by micromethod; format: functional; settings: H37Rv CNCTC My 331/88, 504 h
# Nakaseomyces glabratus [23] = assay: Antifungal activity against Candida glabrata 20/I after 24 hrs by broth microdilution method; format: functional
# [24] = test system: Mycobacterium tuberculosis; assay: Antimycobacterial activity against Mycobacterium tuberculosis H37Rv CNCTC My 331/88 after 14 days by micromethod; format: functional; settings: H37Rv CNCTC My 331/88, 336 h
# Candida albicans [25] = assay: Antifungal activity against Candida albicans ATCC 44859 after 24 hrs by broth microdilution method; format: functional; settings: ATCC 44859, 24 h
# Mycobacterium kansasii [26] = assay: Antimycobacterial activity against Mycobacterium kansasii isolate 6509/96 after 21 days by micromethod; format: functional; settings: isolate 6509/96, 504 h
# Mycobacterium kansasii [27] = assay: Antimycobacterial activity against Mycobacterium kansasii CNCTC My 235/80 after 7 days by micromethod; format: functional; settings: CNCTC My 235/80, 168 h
# Candida tropicalis [28] = assay: Antifungal activity against Candida tropicalis 156 after 24 hrs by broth microdilution method; format: functional; settings: Candida tropicalis, 156, 24 h
# Enterococcus sp. [29] = assay: Antibacterial activity against Enterococcus sp. HK14365/08 after 48 hrs by broth microdilution method; format: functional; settings: HK14365/08, 48 h
# Pseudomonas aeruginosa [30] = assay: Antibacterial activity against Pseudomonas aeruginosa ATCC 9027 after 24 hrs by broth microdilution method; format: functional; settings: ATCC 9027, 24 h
# Staphylococcus aureus [31] = assay: Antibacterial activity against methicillin-resistant Staphylococcus aureus HK5996/08 after 48 hrs by broth microdilution method; format: functional; settings: HK5996/08, 48 h
# Pichia kudriavzevii [32] = assay: Antifungal activity against Candida krusei E28 after 48 hrs by broth microdilution method; format: functional; settings: E28, 48 h
# Enterococcus sp. [33] = assay: Antibacterial activity against Enterococcus sp. HK14365/08 after 24 hrs by broth microdilution method; format: functional; settings: HK14365/08, 24 h
# CHO-K1 = assay: Cytotoxicity against CHOK1 cells after 24 hrs by MTT assay; format: cell-based; settings: Cricetulus griseus, CHO-K1, 24 h
# Candida albicans [34] = assay: Antifungal activity against Candida albicans ATCC 44859 after 48 hrs by broth microdilution method; format: functional; settings: ATCC 44859, 48 h
# Trichosporon asahii [35] = assay: Antifungal activity against Trichosporon asahii 1188 after 48 hrs by broth microdilution method; format: functional; settings: Trichosporon asahii, 1188, 48 h
# Aspergillus fumigatus [36] = assay: Antifungal activity against Aspergillus fumigatus 231 after 48 hrs by broth microdilution method; format: functional; settings: Aspergillus fumigatus, 231, 48 h
# Lichtheimia corymbifera [37] = assay: Antifungal activity against Absidia corymbifera 272 after 24 hrs by broth microdilution method; format: functional; settings: Lichtheimia corymbifera, 272, 24 h
# Escherichia coli [38] = assay: Antibacterial activity against Escherichia coli ATCC 8739 after 48 hrs by broth microdilution method; format: functional; settings: ATCC 8739, 48 h
# Lichtheimia corymbifera [39] = assay: Antifungal activity against Absidia corymbifera 272 after 48 hrs by broth microdilution method; format: functional; settings: Lichtheimia corymbifera, 272, 48 h
# [40] = test system: Trichophyton mentagrophytes; assay: Antifungal activity against Trichophyton mentagrophytes 445 after 120 hrs by broth microdilution method; format: functional; settings: Trichophyton mentagrophytes, 445, 120 h
# Staphylococcus aureus [41] = assay: Antibacterial activity against methicillin-resistant Staphylococcus aureus HK5996/08 after 24 hrs by broth microdilution method; format: functional; settings: HK5996/08, 24 h
# Pichia kudriavzevii [42] = assay: Antifungal activity against Candida krusei E28 after 24 hrs by broth microdilution method; format: functional; settings: E28, 24 h
structure (smiles),measurement,setting,value
CCCCCCCCCCCCn1nnc(-c2cc([N+](=O)[O-])cc([N+](=O)[O-])c2)n1,MIC,Klebsiella pneumoniae [1],> 250 µM
same,MIC,Klebsiella pneumoniae [2],> 250 µM
same,MIC,Aspergillus fumigatus [3],> 250 µM
same,MIC,Klebsiella pneumoniae [4],> 250 µM
same,MIC99,Mycobacterium avium [5],8 µM
same,MIC99,Mycobacterium kansasii [6],8 µM
same,MIC,Candida tropicalis [7],> 250 µM
same,MIC99,Mycobacterium kansasii [8],2 µM
same,MIC,Escherichia coli [9],> 250 µM
same,MIC,[10],> 250 µM
same,MIC,[11],> 250 µM
same,MIC,Staphylococcus aureus [12],> 250 µM
same,MIC,Pseudomonas aeruginosa [13],> 250 µM
same,MIC99,Mycobacterium avium [14],16 µM
same,MIC,Trichosporon asahii [15],> 250 µM
same,MIC,[16],> 250 µM
same,MIC99,Mycobacterium kansasii [17],8 µM
same,MIC,Nakaseomyces glabratus [18],> 250 µM
same,MIC,Staphylococcus aureus [19],> 250 µM
same,MIC99,Mycobacterium kansasii [20],4 µM
same,MIC,Klebsiella pneumoniae [21],> 250 µM
same,MIC99,[22],2 µM
same,MIC,Nakaseomyces glabratus [23],> 250 µM
same,MIC99,[24],1 µM
same,MIC,Candida albicans [25],> 250 µM
same,MIC99,Mycobacterium kansasii [26],4 µM
same,MIC99,Mycobacterium kansasii [27],4 µM
same,MIC,Candida tropicalis [28],> 250 µM
same,MIC,Enterococcus sp. [29],> 250 µM
same,MIC,Pseudomonas aeruginosa [30],> 250 µM
same,MIC,Staphylococcus aureus [31],> 250 µM
same,MIC,Pichia kudriavzevii [32],> 250 µM
same,MIC,Enterococcus sp. [33],> 250 µM
same,IC50,CHO-K1,> 200 µM
same,MIC,Candida albicans [34],> 250 µM
same,MIC,Trichosporon asahii [35],> 250 µM
same,MIC,Aspergillus fumigatus [36],> 250 µM
same,MIC,Lichtheimia corymbifera [37],> 250 µM
same,MIC,Escherichia coli [38],> 250 µM
same,MIC,Lichtheimia corymbifera [39],> 250 µM
same,MIC,[40],> 250 µM
same,MIC,Staphylococcus aureus [41],> 250 µM
same,MIC,Pichia kudriavzevii [42],> 250 µM
Cc1ccc(Cn2nnnc2-c2cc([N+](=O)[O-])cc([N+](=O)[O-])c2)cc1,MIC,Klebsiella pneumoniae [1],500 µM
same,MIC,Klebsiella pneumoniae [2],500 µM
same,MIC,Aspergillus fumigatus [3],> 500 µM
same,MIC,Klebsiella pneumoniae [4],500 µM
same,MIC99,Mycobacterium avium [5],8 µM
same,MIC99,Mycobacterium kansasii [6],4 µM
same,MIC,Candida tropicalis [7],> 500 µM
same,MIC99,Mycobacterium kansasii [8],2 µM
same,MIC,Escherichia coli [9],500 µM
same,MIC,[10],250 µM
same,MIC,[11],250 µM
same,MIC,Staphylococcus aureus [12],125 µM
same,MIC,Pseudomonas aeruginosa [13],> 500 µM
same,MIC99,Mycobacterium avium [14],16 µM
same,MIC,Trichosporon asahii [15],> 500 µM
same,MIC,[16],> 500 µM
same,MIC99,Mycobacterium kansasii [17],2 µM
same,MIC,Nakaseomyces glabratus [18],> 500 µM
same,MIC,Staphylococcus aureus [19],125 µM
same,MIC99,Mycobacterium kansasii [20],4 µM
same,MIC,Klebsiella pneumoniae [21],500 µM
same,MIC99,[22],2 µM
same,MIC,Nakaseomyces glabratus [23],> 500 µM
same,MIC99,[24],1 µM
same,MIC,Candida albicans [25],> 500 µM
same,MIC99,Mycobacterium kansasii [26],4 µM
same,MIC99,Mycobacterium kansasii [27],1 µM
same,MIC,Candida tropicalis [28],> 500 µM
same,MIC,Enterococcus sp. [29],250 µM
same,MIC,Pseudomonas aeruginosa [30],> 500 µM
same,MIC,Staphylococcus aureus [31],125 µM
same,MIC,Pichia kudriavzevii [32],> 500 µM
same,MIC,Enterococcus sp. [33],250 µM
same,IC50,CHO-K1,28 µM
same,MIC,Candida albicans [34],> 500 µM
same,MIC,Trichosporon asahii [35],> 500 µM
same,MIC,Aspergillus fumigatus [36],> 500 µM
same,MIC,Lichtheimia corymbifera [37],> 500 µM
same,MIC,Escherichia coli [38],500 µM
same,MIC,Lichtheimia corymbifera [39],> 500 µM
same,MIC,[40],> 500 µM
same,MIC,Staphylococcus aureus [41],125 µM
same,MIC,Pichia kudriavzevii [42],> 500 µM

# — ChEMBL document CHEMBL4011590, “Structure-activity relationship studies on 3,5-dinitrophenyl tetrazoles as antitubercular agents” (Eur J Med Chem, 2017)
